The data set has as its system L-929 mouse fibroblast cells. The data set can be described thus: MEM endpoint dilution assay for liquids (cytotoxic threshold of SDS). Particulars: for Cytotoxicity Score: about 24 hours; for Pass/Fail: scores 0-2 Pass, 3-4 Fail per Table 1. Also noted: key to Cytotoxicity Score: 0: Discrete intracytoplasmic granules, no cell lysis, no reduction of cell growth; 1: Not more than 20% of the cells are round, loosely attached, and without intracytoplasmic granules, or show changes in morphology; occasional lysed cells are present; only slight growth inhibition observable; 2: Not more than 50% of the cells are round, devoid of intracytoplasmic granules, no extensive cell lysis; not more than 50% growth inhibition observable; 3: Not more than 70% of the cell layers contain rounded cells or are lysed; cell layers not completely destroyed, but more than 50% growth inhibition observable; 4: Nearly complete or complete destruction of the cell layers. Format: cell-based. How it is done: To determine the cytotoxic threshold of SDS, an MEM endpoint dilution assay for liquids using L-929 mouse fibroblast cells was performed. Briefly, solutions of Eagle's minimum essential medium with about 5% fetal bovine serum were created with various concentrations of SDS. One mL of the SDS containing medium was placed in a disposable tissue culture labware and a monoloyer of L-929 mouse fibroblasts was placed on top of the media. The cells were incubated for about 24 hours at about 37° C. in a humidified atmosphere of about 5% CO2 in air. The mouse fibroblasts were then […] examined using the semi-quantitative scale defined in Table 1.
Appropriate positive and negative controls were assessed to ensure the validity of the assay.

Where [1] appears, read: SDS concentration 4 μg/mL (approximate).
The mark [2] stands for this setting: SDS concentration 8 μg/mL (approximate).
The mark [3] stands for this setting: SDS concentration 16 μg/mL (approximate).
Setting [4] is: SDS concentration 17 μg/mL (approximate).
[5] abbreviates: SDS concentration 20 μg/mL (approximate).
[6] abbreviates: SDS concentration 23 μg/mL (approximate).
Where [7] appears, read: SDS concentration 26 μg/mL (approximate).
[8] abbreviates: SDS concentration 29 μg/mL (approximate).
The mark [9] stands for this setting: SDS concentration 32 μg/mL (approximate).

These results are taken from US20150344843A1, “DETERGENT TREATED BIOLOGICAL TISSUE WITH LOW RESIDUAL DETERGENT AND METHOD OF PRODUCING THE SAME” (Bacterin International, Inc., priority 2014, published 2015).

Take `CCCCCCCCCCCCOS(=O)(=O)[O-].[Na+]` [SDS, sodium dodecyl sulfate]: the “Cytotoxicity Score” value is recorded as 0 under setting [1]; 0 under setting [2]; 0 under setting [3]; 0 under setting [4]; 0 under setting [5]; 1 under setting [6]. Besides, the “Cytotoxicity Score” value is, setting by setting: under setting [7], 4; under setting [8], 4; under setting [9], 4. Also, the Pass/Fail result is, setting by setting: under setting [1], “Pass”; under setting [2], “Pass”; under setting [3], “Pass”; under setting [4], “Pass”; under setting [5], “Pass”; under setting [6], “Pass”. Also, the Pass/Fail entry under setting [7] is listed as “Fail”, the Pass/Fail entry under setting [8] is “Fail” and the Pass/Fail result under setting [9] is “Fail”. Further, the “limit of toxicity for SDS, corresponding tissue content” value (converted from μg/mL limit) was 86-98 ng of SDS/mg of tissue. Besides, the “SDS content for tissue to be non-cytotoxic” value (threshold from in vitro limit) was “less than 86 ng of SDS/mg of tissue”.
